The values below come from patent publication US20260083864A1, “CONTRAST AGENTS FOR USE IN DIAGNOSTIC COMPUTED TOMOGRAPHY IMAGING” (Bayer Aktiengesellschaft, priority 2022, published 2026).

Data set [1] is described as follows: Relaxivity measurements at 1.41 T in water. The settings on record: 37° C., normalized to Gd. The data set is classed as physicochemical. The essentials:
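T1 by inversion recovery and T2 by CPMG at 1.41 T (60 MHz), 37° C, relaxation delay ≥5×T1. Three Gd concentrations between 0.05 and 2 mM; relaxivities derived from measured relaxation rates in water.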

Data set [2] is described as follows: Partition coefficient (log P butanol/buffer). The data set is classed as physicochemical. The settings on record: 1-butanol / 50 mM Tris-HCl, pH 7.4, room temperature.
Data set [3] can be described thus: Relaxivity measurements at 1.41 T in human plasma. The class given is physicochemical. The conditions noted are these: 37° C., normalized to Gd. In outline: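 T1 determined by inversion recovery (8 inversion-time steps) and T2 by CPMG sequence, both with relaxation delay ≥5×T1. Each relaxivity used three Gd concentrations between 0.05 and 2 mM. Relaxivities were derived from relaxation rates measured in water and plasma.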

A short description of data set [4]: Water solubility in aqueous buffer. The conditions noted are these: aqueous buffer 10 mM Tris-HCl, pH 7.4, 20° C. As for the experimental part:
The solid compounds were added stepwise to the buffer solution. More substance is added once all the suspended material is dissolved until an equilibrium between undissolved and dissolved substance is reached. The suspension was mixed using a shaker (Heidolph Reax 2000) and treated 5 min in an ultrasound bath (Bandelin, Sonorex Super RK255H).

The nature of data set [5]: Complex stability (transmetallation) against Zn2+ in phosphate buffer. The settings on record: 72 hours, 2.5 mM Zn^2+, 26 mM phosphate buffer, 37° C., pH 7.4. The text has this:
If test compounds are instable under these conditions, transmetallation during this test would lead to the formation of the Zn^2+ complex of the test item, while Gd^3+ is released and precipitated as highly insoluble GdPO4.

The test system of data set [6] is freshly isolated rat hepatocytes. Nature of the data set: Uptake into freshly isolated rat hepatocytes. The settings on record: for Uptake rat hepatocytes: 100 μmol Gd/L, 10 min, 37° C., relative to RC1 (Gd-EOB-DTPA); for Inhibition Rifampicine: rat hepatocyte uptake, test item and Rifampicine 1:1, each 100 μM.
The next data set addresses T1, OATP1B3 (Homo sapiens, UniProt Q9NPD5).
T1 sequence (Q9NPD5 1-702): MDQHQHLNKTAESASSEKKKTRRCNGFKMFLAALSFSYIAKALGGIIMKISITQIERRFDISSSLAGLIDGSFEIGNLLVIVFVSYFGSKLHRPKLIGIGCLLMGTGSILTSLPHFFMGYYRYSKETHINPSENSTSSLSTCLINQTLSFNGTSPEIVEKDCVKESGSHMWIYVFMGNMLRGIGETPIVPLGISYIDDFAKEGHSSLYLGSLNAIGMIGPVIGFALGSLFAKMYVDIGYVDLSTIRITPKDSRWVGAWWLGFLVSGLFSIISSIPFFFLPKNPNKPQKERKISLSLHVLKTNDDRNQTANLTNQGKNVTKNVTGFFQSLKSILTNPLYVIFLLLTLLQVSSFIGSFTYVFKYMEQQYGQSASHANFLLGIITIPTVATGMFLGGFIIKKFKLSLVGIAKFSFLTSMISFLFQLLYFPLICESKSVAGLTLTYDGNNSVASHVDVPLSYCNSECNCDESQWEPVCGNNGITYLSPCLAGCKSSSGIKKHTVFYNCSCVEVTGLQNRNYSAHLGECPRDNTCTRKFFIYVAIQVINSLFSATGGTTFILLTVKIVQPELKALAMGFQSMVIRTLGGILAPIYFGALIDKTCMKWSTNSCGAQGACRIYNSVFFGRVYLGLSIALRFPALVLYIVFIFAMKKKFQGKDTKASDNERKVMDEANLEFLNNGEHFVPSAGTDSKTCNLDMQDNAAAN
The experiment in a line: Uptake into stable transfected OATP1B3 HEK 293 cells. The class given is cell-based. The conditions noted are these: for Uptake into OATP1B3-HEK 293 cells: 40 min incubation, relative to RC1 (Gd-EOB-DTPA); for Inhibition Rifampicine: uptake into OATP1B3-HEK 293 cells. In outline:
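HEK 293 cells stably transfected with human OATP1B3 were incubated for 40 min with test items at 100 μM final in transport buffer, in triplicate, then washed with cold PBS. Gadoxetate (Gd-EOB-DTPA) served as the reference standard on the same plate.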

Another data set deals with T2, OATP1B1 (Homo sapiens, UniProt Q9Y6L6).
T2 sequence (Q9Y6L6 1-691): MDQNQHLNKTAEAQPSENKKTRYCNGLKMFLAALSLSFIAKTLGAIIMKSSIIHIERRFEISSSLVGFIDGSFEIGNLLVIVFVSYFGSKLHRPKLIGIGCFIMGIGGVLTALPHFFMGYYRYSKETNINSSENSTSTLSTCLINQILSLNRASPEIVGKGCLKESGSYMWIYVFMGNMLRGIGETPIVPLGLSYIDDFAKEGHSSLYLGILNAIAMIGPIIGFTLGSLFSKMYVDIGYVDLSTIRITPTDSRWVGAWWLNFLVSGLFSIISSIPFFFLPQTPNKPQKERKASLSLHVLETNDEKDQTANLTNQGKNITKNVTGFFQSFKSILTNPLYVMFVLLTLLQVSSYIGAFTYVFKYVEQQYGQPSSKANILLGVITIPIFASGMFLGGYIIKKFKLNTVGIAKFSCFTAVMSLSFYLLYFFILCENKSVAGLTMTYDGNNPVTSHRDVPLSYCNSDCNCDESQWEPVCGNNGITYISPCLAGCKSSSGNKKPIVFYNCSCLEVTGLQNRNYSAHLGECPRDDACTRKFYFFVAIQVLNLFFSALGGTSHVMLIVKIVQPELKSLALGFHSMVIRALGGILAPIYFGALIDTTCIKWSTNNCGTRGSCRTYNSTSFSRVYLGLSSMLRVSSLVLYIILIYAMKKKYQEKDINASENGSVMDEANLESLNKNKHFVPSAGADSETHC
The experiment in a line: Uptake into stable transfected OATP1B1 HEK 293 cells. The data set is classed as cell-based. The settings on record: for Uptake into OATP1B1-HEK 293 cells: 40 min incubation, relative to RC1 (Gd-EOB-DTPA); for Inhibition Rifampicine: uptake into OATP1B1-HEK 293 cells. The essentials:
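Stably transfected OATP1B1 HEK293 cells incubated 40 min without shaking with test item at 100 µM final in transport buffer, in triplicate. Cells then washed with cold PBS; gadoxetate run on the same plate as reference.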

In data set [1], `CCOCCOCCOc1ccc(CC(C(=O)O)N2CCN(CC(=O)[O-])CCN(C(C)C(=O)[O-])CCN(CC(=O)[O-])CC2)cc1.[Gd+3]` (single isomer, unassigned) [Example 6, gadolinium 2-[7-(1-carboxy-2-{4-[2-(2-ethoxyethoxy)ethoxy]phenyl}ethyl)-4,10-bis(carboxylatomethyl)-1,4,7,10-tetraazacyclododecan-1-yl]propanoate] came in with a r1 water of 4.3 L/mmol/s. The “Log P (partition coefficient butanol/buffer)” value in data set [2] is recorded as −1.44. In data set [3], this compound gave a r1 human plasma of 6.6 L/mmol/s. For the same compound, the Solubility in data set [4] is greater than 217 mM. This compound also came in with a Transmetallation stability in data set [5] of 102%. In data set [6], the Uptake rat hepatocytes is reported as 62 % of RC1 and the “Inhibition Rifampicine” value is given as 96 % inhibition.
`CCOCCOc1ccc(CC(C(=O)O)N2CCN(CC(=O)[O-])CCN(C(CC)C(=O)[O-])CCN(CC(=O)[O-])CC2)cc1.[Gd+3]` (single isomer, unassigned) [Example 7, gadolinium 2-[7-{1-carboxy-2-[4-(2-ethoxyethoxy)phenyl]ethyl}-4,10-bis(carboxylatomethyl)-1,4,7,10-tetraazacyclododecan-1-yl]butanoate]: on OATP1B3, the “Uptake into OATP1B3-HEK 293 cells” value is recorded as 76 % of RC1 and the “Inhibition Rifampicine” value is recorded as 99 % inhibition. Besides, the r1 water in data set [1] was 4.5 L/mmol/s. Moreover, the “Log P (partition coefficient butanol/buffer)” value in data set [2] is −1.09. In data set [3], this compound yielded a r1 human plasma of 7.4 L/mmol/s. In data set [4], the Solubility is greater than 243 mM. The same compound showed a Transmetallation stability in data set [5] of 101%. Besides, in data set [6], the Uptake rat hepatocytes is reported as 89 % of RC1 and the “Inhibition Rifampicine” value came out at 99 % inhibition. Besides, at OATP1B1, the “Uptake into OATP1B1-HEK 293 cells” value is listed as 217 % of RC1 and the “Inhibition Rifampicine” value is reported as 91 % inhibition.
With `CCOCCOc1ccc(CC(C(=O)O)N2CCN(CC(=O)[O-])CCN(C(CC)C(=O)[O-])CCN(CC(=O)[O-])CC2)cc1.[Gd+3]` (single isomer, unassigned) [Example 8, gadolinium 2-[7-{1-carboxy-2-[4-(2-ethoxyethoxy)phenyl]ethyl}-4,10-bis(carboxylatomethyl)-1,4,7,10-tetraazacyclododecan-1-yl]butanoate], at OATP1B3, the “Uptake into OATP1B3-HEK 293 cells” value was 90 % of RC1 and the “Inhibition Rifampicine” value is listed as 99 % inhibition. Moreover, the r1 water in data set [1] stood at 4.5 L/mmol/s. The “Log P (partition coefficient butanol/buffer)” value in data set [2] is on record as −1.04. Moreover, in data set [3], the r1 human plasma is 7.2 L/mmol/s. The same compound registered a Solubility in data set [4] of 117 mM. Further, in data set [5], the Transmetallation stability is 102%. Also, in data set [6], the Uptake rat hepatocytes is listed as 83 % of RC1 and the “Inhibition Rifampicine” value came to 98 % inhibition. Moreover, on OATP1B1, the “Uptake into OATP1B1-HEK 293 cells” value is 271 % of RC1 and the “Inhibition Rifampicine” value came to 90 % inhibition.
`CCOCCOCCOc1ccc(C[C@H](C(=O)O)N2CCN(CC(=O)[O-])CCN(CC(=O)[O-])CCN(CC(=O)[O-])CC2)cc1.[Gd+3]` [Example 4, gadolinium 2,2′,2″-{10-[(1R)-1-carboxy-2-{4-[2-(2-ethoxyethoxy)ethoxy]phenyl}ethyl]-1,4,7,10-tetraazacyclododecane-1,4,7-triyl}triacetate]: on OATP1B3, the “Uptake into OATP1B3-HEK 293 cells” value was 58 % of RC1 and the “Inhibition Rifampicine” value is on record as 98 % inhibition. The r1 water in data set [1] was 4.2 L/mmol/s. The “Log P (partition coefficient butanol/buffer)” value in data set [2] was −1.61. In data set [3], this compound yielded a r1 human plasma of 6.5 L/mmol/s. Further, the Solubility in data set [4] was greater than 75 mM. For the same compound, the Transmetallation stability in data set [5] stood at 100%. Further, in data set [6], the Uptake rat hepatocytes was 72 % of RC1 and the “Inhibition Rifampicine” value is 98 % inhibition. Also, on OATP1B1, the “Uptake into OATP1B1-HEK 293 cells” value was 126 % of RC1 and the “Inhibition Rifampicine” value was determined as 40 % inhibition.
In the case of `CCOCCOCCOc1ccc(CC(C(=O)O)N2CCN(C(CO)C(=O)[O-])CCN(C(CO)C(=O)[O-])CCN(C(CO)C(=O)[O-])CC2)cc1.[Gd+3]` (stereo not drawn) [Example 22, gadolinium 2,2′,2″-{10-[1-carboxy-2-{4-[2-(2-ethoxyethoxy)ethoxy]phenyl}ethyl]-1,4,7,10-tetraazacyclododecane-1,4,7-triyl}tris(3-hydroxypropanoate)], on OATP1B3, the “Uptake into OATP1B3-HEK 293 cells” value is given as 46 % of RC1 and the “Inhibition Rifampicine” value is listed as 96 % inhibition. The compound also came in with a r1 water in data set [1] of 5.4 L/mmol/s. The r1 human plasma in data set [3] is 7.7 L/mmol/s. In addition, the Solubility in data set [4] is greater than 308 mM. Besides, the Transmetallation stability in data set [5] was 96%. Also, in data set [6], the Uptake rat hepatocytes is given as 41 % of RC1 and the “Inhibition Rifampicine” value is 83 % inhibition. Also, on OATP1B1, the “Uptake into OATP1B1-HEK 293 cells” value is 77 % of RC1 and the “Inhibition Rifampicine” value is 51 % inhibition.
With `CCCOc1ccc(CC(C(=O)O)N2CCN(CC(=O)[O-])CCN(CC(=O)[O-])CCN(CC(=O)[O-])CC2)cc1.[Gd+3]` (stereo not drawn) [Example 48, gadolinium 2,2′,2″-{10-[1-carboxy-2-(4-propoxyphenyl)ethyl]-1,4,7,10-tetraazacyclododecane-1,4,7-triyl}triacetate], at OATP1B3, the “Uptake into OATP1B3-HEK 293 cells” value was 11 % of RC1 and the “Inhibition Rifampicine” value worked out at 81 % inhibition. Also, in data set [1], the r1 water is 4.0 L/mmol/s. In addition, the r1 human plasma in data set [3] was determined as 9.3 L/mmol/s. Further, the Solubility in data set [4] turned out to be 16 mM. The compound also returned a Transmetallation stability in data set [5] of 99%. Moreover, in data set [6], the Uptake rat hepatocytes was 77 % of RC1 and the “Inhibition Rifampicine” value is 98 % inhibition. On OATP1B1, the “Uptake into OATP1B1-HEK 293 cells” value was 240 % of RC1 and the “Inhibition Rifampicine” value turned out to be 92 % inhibition.
